Test results: patent publication US20220323521A1, “Compositions and Uses for Engineered Therapeutic Microbes and Associated Receptors” (The Brigham and Women`s Hospital, Inc., priority 2019, published 2022)

Legend:
human P2Y2 receptor [1] = assay: Flow cytometry evaluation of response to ATP and UTP (pFUS1-mCherry mating pathway reporter in yeast strain BS016); type: cell-based; settings: for ATP Linear Range μM / ATP Max Response (±SE) / ATP Dynamic Range / ATP Linear Range: ligand eATP; for ATP Max Response (±SE) / UTP Max Response (±SE): normalized to maximum mating pathway activation by WT human P2Y2 receptor with eATP; for ATP Dynamic Range / UTP Dynamic Range: ratio of highest fluorescence versus 10% signal saturation; for UTP Max Response (±SE): unit assumed; for Follow-up Test Results: response/sensitivity to ATP versus WT, post-sorting follow-up; for signaling in the absence of agonist (constitutive activity): no agonist
Experimental: (§1) Flow cytometry evaluation of response to ATP and UTP. Yeast strain BS016 transformed with a human P2Y2 gene in the pRS316 pTDH3 vector was grown in SC-URA liquid media overnight. The same strain transformed with a plasmid not containing a P2Y2 sequence (Vector) was used as a negative control. Cells were diluted to OD600 0.05 in 600 μL SC-URA containing ATP (0-25.6 mM; pH 7.0, Bio Basic) or UTP (0-3.2 mM; pH 7.0, Sigma-Aldrich) and incubated for 6 hours at 30° C. Cells were then treated with cycloheximide to a final concentration of 10 μg/mL. The mCherry signal of at least 10,000 cells was measured for each sample with a Miltenyi Biotec MACSQuant VYB. The mean mCherry fluorescence was determined using FlowJo. For dose-response assays, data was fitted with the “log(agonist) vs. response—Variable slope (four parameters)” model in Prism (GraphPad). After subtracting the mCherry fluorescence signal of the Vector control, fluorescence values were normalized to the wild-type P2Y2 control used in the same experiment, to allow comparisons between experiments performed on different days.
(§2) Directed evolution of human P2Y2 receptor. Error-prone PCR mutagenesis was performed using the Agilent GeneMorph II Random Mutagenesis Kit with yeast codon-optimized human P2Y2 as a template, using previously described methods (104). 150 ng of template DNA and 30 cycles achieved the desired mutation rate of ˜3 mutations per P2Y2 gene, determined by sequencing 12 randomly selected plasmids (Table 2). The random mutants were inserted into pRS316 pTDH3 using AarI-based cloning and transformed into NEB 5-alpha competent E. coli cells (New England Biolabs) generating >15,000 individual colonies. Cells were scraped off agar plates, mixed together, and plasmid DNA was extracted (QIAQuick Spin Miniprep Kit, Qiagen) to create the final plasmid library. The library was transformed into yeast strain BS016 using a high-efficiency lithium acetate-based method (105), yielding at least 10-fold the number of colonies as the total library size, so that each mutant would be screened multiple times. Transformed cells were incubated overnight, then diluted to OD600 0.05 into fresh 100 mL SC-URA liquid media containing 100 μM ATP (pH 7.0, Biobasic), and incubated for either 18 or 6 hours at 30° C. (FIG. 8). After brief sonication, 10^6-10^7 cells were gated by side and forward scatter and sorted for the highest ˜1% of mCherry signal using a BD Influx cell sorter (106). A total of 174 yeast colonies recovered from various sorting experiments were individually screened for their response to 100 μM UTP, 100 μM ATP, or with no ligand, after a 6-hour incubation. Plasmids were isolated from selected colonies by first incubating with zymolase (BioShop Canada) then extracting plasmid DNA (QIAQuick Spin Miniprep Kit, Qiagen). Plasmid DNA was amplified using NEB 5-alpha competent E. coli cells (New England Biolabs), the plasmid DNA was sequenced, and fresh BS016 yeast cells were transformed for dose-response experiments.
(§3) Maximum response values were normalized to the maximum mating pathway activation provided by the WT human P2Y2 receptor incubated with eATP. Dynamic range was the ratio of the highest fluorescence obtained in the presence of the indicated ligand versus 10% signal saturation. Linear range was the series of ligand concentrations for which a change in signal can be detected. The minimum limit of the linear range was estimated as the ligand concentration corresponding to 10% signal saturation. Data represents the mean of six colonies for eATP, three colonies for eUTP.

human P2Y2 receptor [2] = biological target: T1, human P2Y2 receptor (Homo sapiens, UniProt P41231); assay: as above; type: cell-based; settings: for EC50: agonist on WT human P2Y2 in Gpa1-Gαi3 pFUS1-mCherry strain
T1 construct: expressed in transfected cells; host or cells: Saccharomyces cerevisiae strain BS016 (Gpa1-Gαi3 chimera, pFUS1-mCherry reporter), plasmid pRS316 pTDH3
T1 sequence (P41231 whole entry): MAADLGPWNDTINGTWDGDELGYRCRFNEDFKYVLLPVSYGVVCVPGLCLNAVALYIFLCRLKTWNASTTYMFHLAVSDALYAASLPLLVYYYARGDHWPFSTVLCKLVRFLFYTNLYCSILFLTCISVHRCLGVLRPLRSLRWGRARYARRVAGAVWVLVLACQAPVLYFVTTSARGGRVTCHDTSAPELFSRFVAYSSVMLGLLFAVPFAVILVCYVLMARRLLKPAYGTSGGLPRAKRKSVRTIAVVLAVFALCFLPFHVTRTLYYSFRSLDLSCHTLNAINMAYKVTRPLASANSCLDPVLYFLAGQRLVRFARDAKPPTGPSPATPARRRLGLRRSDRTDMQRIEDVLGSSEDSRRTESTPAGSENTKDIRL
Experimental: as §1, §2, §3

[3] = ligand concentrations for which a change in signal can be detected
[4] = ligand eUTP, ligand concentrations for which a change in signal can be detected

| Molecule | ATP Linear Range μM (human P2Y2 receptor [1]; [3]) | ATP Max Response (±SE) (human P2Y2 receptor [1]) | ATP Dynamic Range (human P2Y2 receptor [1]) | UTP Linear Range (human P2Y2 receptor [1]; [4]) | UTP Max Response (±SE) (human P2Y2 receptor [1]; ligand eUTP) | UTP Dynamic Range (human P2Y2 receptor [1]; ligand eUTP) | EC50 (human P2Y2 receptor [2]) | Follow-up Test Results (human P2Y2 receptor [1]) | response to 100 μM eATP (mCherry expression) (human P2Y2 receptor [2]; 100 μM eATP) | UTP Linear Range μM (human P2Y2 receptor [1]; [4]) | ATP Linear Range (human P2Y2 receptor [1]; [3]) | signaling in the absence of agonist (constitutive activity) (human P2Y2 receptor [1]) |
| --- | --- | --- | --- | --- | --- | --- | --- | --- | --- | --- | --- | --- |
| TM-4: human P2Y2 receptor mutant L162I Q165H | 0.5-8,950^ μM | 137% | 10 | 0.07 to 31 µM | 69% | 7 | – | – | – | – | – | – |
| H1-3: human P2Y2 receptor mutant F58I [Mutant H1-3] | 4-3,945 μM | 152% | 10 | 0.4 to 550 µM | 122% | 8 | – | – | – | – | – | – |
| O=c1ccn([C@@H]2O[C@H](COP(=O)(O)OP(=O)(O)OP(=O)(O)O)[C@@H](O)[C@H]2O)c(=O)[nH]1 [eUTP, uridine triphosphate, reference compound] | – | – | – | – | – | – | 123 µM | – | – | – | – | – |
| 18R2-23: human P2Y2 receptor mutant V250A [Mutant 18R2-23] | – | – | – | – | – | – | – | No different than WT, not selected for | – | – | – | – |
| 6R1-2: human P2Y2 receptor mutant I214T [Mutant 6R1-2] | – | – | – | – | – | – | – | No different than WT, not selected for | – | – | – | – |
| 18R2-2: human P2Y2 receptor mutant L112S A176V [Mutant 18R2-2] | – | – | – | – | – | – | – | No different than WT, not selected for | – | – | – | – |
| WT: wild-type human P2Y2 receptor (NP_002555.4), yeast codon-optimized [reference compound] | 113-25,600 μM | 100% | 8 | – | 98% | 9 | – | – | weak response | 4-1,374 μM | – | – |
| H1-4: human P2Y2 receptor mutant F58L S359P [Mutant H1-4] | 5-3,882 μM | 110% | 9 | 0.2 to 61 µM | 96% | 7 | – | – | – | – | – | – |
| H1-2: human P2Y2 receptor mutant F58L [Mutant H1-2] | 4-4,966 μM | 122% | 9 | 0.05 to 22 µM | 101% | 6 | – | – | – | – | – | – |
| Nc1ncnc2c1ncn2[C@@H]1O[C@H](COP(=O)(O)OP(=O)(O)OP(=O)(O)O)[C@@H](O)[C@H]1O [eATP, adenosine triphosphate, reference compound] | – | – | – | – | – | – | 1860 µM | – | – | – | – | – |
| TM-2: human P2Y2 receptor mutant L59I C119S | 3-2,243 μM | 165% | 9 | 0.9 to 169 µM | 143% | 8 | – | – | – | – | – | – |
| H7-1: human P2Y2 receptor mutant K240N F307S [Mutant H7-1] | – | 181% | 3 | 0.02 to 3.1 µM | 199% | 3 | – | – | – | – | 0.3 to 18 µM | increased responsiveness and signaling in the absence of agonist (constitutive activity) |
| TM-3: human P2Y2 receptor mutant N116S | – | 110% | 5 | 0.04 to 63 µM | 86% | 5 | – | – | – | – | 0.9 to 284 µM | increased responsiveness and signaling in the absence of agonist (constitutive activity) |
| H7-2: human P2Y2 receptor mutant A76T A229V F307S (protein, UniProt P41231 1-377, looked up, variant A76T A229V F307S) P2Y purinoceptor 2: MAADLGPWNDTINGTWDGDELGYRCRFNEDFKYVLLPVSYGVVCVPGLCLNAVALYIFLCRLKTWNASTTYMFHLTVSDALYAASLPLLVYYYARGDHWPFSTVLCKLVRFLFYTNLYCSILFLTCISVHRCLGVLRPLRSLRWGRARYARRVAGAVWVLVLACQAPVLYFVTTSARGGRVTCHDTSAPELFSRFVAYSSVMLGLLFAVPFAVILVCYVLMARRLLKPVYGTSGGLPRAKRKSVRTIAVVLAVFALCFLPFHVTRTLYYSFRSLDLSCHTLNAINMAYKVTRPLASANSCLDPVLYSLAGQRLVRFARDAKPPTGPSPATPARRRLGLRRSDRTDMQRIEDVLGSSEDSRRTESTPAGSENTKDIRL | – | 90% | 2 | 0.01 to 6 µM | 84% | 3 | – | – | – | – | 0.3 to 23 µM | increased responsiveness and signaling in the absence of agonist (constitutive activity) |
| 18R2-18: human P2Y2 receptor mutant W16R V90A A295V (protein, UniProt P41231 1-377, looked up, variant W16R V90A A295V) P2Y purinoceptor 2: MAADLGPWNDTINGTRDGDELGYRCRFNEDFKYVLLPVSYGVVCVPGLCLNAVALYIFLCRLKTWNASTTYMFHLAVSDALYAASLPLLAYYYARGDHWPFSTVLCKLVRFLFYTNLYCSILFLTCISVHRCLGVLRPLRSLRWGRARYARRVAGAVWVLVLACQAPVLYFVTTSARGGRVTCHDTSAPELFSRFVAYSSVMLGLLFAVPFAVILVCYVLMARRLLKPAYGTSGGLPRAKRKSVRTIAVVLAVFALCFLPFHVTRTLYYSFRSLDLSCHTLNAINMAYKVTRPLVSANSCLDPVLYFLAGQRLVRFARDAKPPTGPSPATPARRRLGLRRSDRTDMQRIEDVLGSSEDSRRTESTPAGSENTKDIRL | – | – | – | – | – | – | – | inconsistent results | – | – | – | – |
| H1-1: human P2Y2 receptor mutant F58C C60Y G310A (protein, UniProt P41231 1-377, looked up, variant F58C C60Y G310A) P2Y purinoceptor 2: MAADLGPWNDTINGTWDGDELGYRCRFNEDFKYVLLPVSYGVVCVPGLCLNAVALYICLYRLKTWNASTTYMFHLAVSDALYAASLPLLVYYYARGDHWPFSTVLCKLVRFLFYTNLYCSILFLTCISVHRCLGVLRPLRSLRWGRARYARRVAGAVWVLVLACQAPVLYFVTTSARGGRVTCHDTSAPELFSRFVAYSSVMLGLLFAVPFAVILVCYVLMARRLLKPAYGTSGGLPRAKRKSVRTIAVVLAVFALCFLPFHVTRTLYYSFRSLDLSCHTLNAINMAYKVTRPLASANSCLDPVLYFLAAQRLVRFARDAKPPTGPSPATPARRRLGLRRSDRTDMQRIEDVLGSSEDSRRTESTPAGSENTKDIRL | – | 149% | 5 | 0.05 to 12 µM | 128% | 4 | – | – | – | – | 0.5 to 184 µM | – |
